Laboratory results from ChEMBL document CHEMBL4334553, “Discovery of Hydroxyamidine Based Inhibitors of IDO1 for Cancer Immunotherapy with Reduced Potential for Glucuronidation” (ACS Med Chem Lett, 2020).
Active and inactive are the calls of the source. No cut-off for these calls is given here.

Key:
[1] = AUC (0 to 24 hrs) in rat at 5 mg/kg, po administered as single dose by capillary micro-sampling analysis; format: ADME, organism-based; parameters: dose 5 mg/kg, time < 24 hr, route oral; details: in vivo
[2] = Half life in mouse at 10 mg/kg, po by capillary micro-sampling analysis; format: ADME, organism-based; details: in vivo
Cytochrome P450 2C9 = Cytochrome P450 2C9 (Homo sapiens, UniProt P11712); assay: Inhibition of CYP2C9 (unknown origin); format: ADME
[3] = Protein binding in human plasma; format: ADME, cell-free; details: read-out: PPB (converted)
UGT1A9 = biological target: T1, UGT1A9 (Homo sapiens, UniProt O60656); assay: Stability assessed as recombinant UGT1A9 (unknown origin) mediated compound glucuronidation by measuring half-life at 1 uM incubated in water bath by shaking at 37 degree C measured upto 60 mins in presence of UDPGA by LC-MS/MS analysis; format: ADME
T1 sequence (O60656 whole entry): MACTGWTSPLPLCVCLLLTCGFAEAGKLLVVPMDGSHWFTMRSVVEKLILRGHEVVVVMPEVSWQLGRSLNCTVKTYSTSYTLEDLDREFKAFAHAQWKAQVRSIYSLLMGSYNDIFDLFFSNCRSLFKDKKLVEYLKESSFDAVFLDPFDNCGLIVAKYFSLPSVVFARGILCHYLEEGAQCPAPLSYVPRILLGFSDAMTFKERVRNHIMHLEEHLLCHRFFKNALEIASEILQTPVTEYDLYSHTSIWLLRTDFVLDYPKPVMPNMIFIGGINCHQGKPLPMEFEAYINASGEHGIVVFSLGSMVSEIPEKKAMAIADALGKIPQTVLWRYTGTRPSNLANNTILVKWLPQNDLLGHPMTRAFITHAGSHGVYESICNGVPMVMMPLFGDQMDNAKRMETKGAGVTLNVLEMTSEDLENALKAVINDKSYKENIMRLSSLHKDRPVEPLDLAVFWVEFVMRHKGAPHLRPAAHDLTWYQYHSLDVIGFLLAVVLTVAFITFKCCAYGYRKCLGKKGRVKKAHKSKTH

[4] = AUC in humanized PXB-mouse assessed as ratio of glucuronide to parent compound at 10 mg/kg, po administered as single dose; format: ADME, organism-based; details: in vivo
CT26 [5] = assay: Synergistic antitumor activity against mouse CT26 cells implanted in immunocompetent BALB/c mouse assessed as survival at […] at 100 mg/kg, po administered twice daily over 15 days starting from day 10 post implantation in presence of CTLA-4 antibody at 100 ug, ip administered at day 3,6,9 measured thrice per week and monitored for 45 days; format: functional, organism-based
Cytochrome P450 3A4 = Cytochrome P450 3A4 (Homo sapiens, UniProt P08684); assay: Inhibition of CYP3A4 (unknown origin); format: ADME
[6] = AUC (0 to 24 hrs) in mouse at 10 mg/kg, po by capillary micro-sampling analysis; format: ADME, organism-based; parameters: dose 10 mg/kg, time < 24 hr, route oral; details: in vivo
[7] = biological target: T2, Indoleamine 2,3-dioxygenase 1 (Homo sapiens, UniProt P14902); assay: Inhibition IDO1 in LPS/IFN-gamma stimulated human whole blood assessed as reduction in tryptophan/kynurenine level preincubated for 15 mins followed by LPS/IFN-gamma stimulation measured after 20 hrs by LC-MS/MS analysis; format: tissue-based
[8] = Protein binding in mouse plasma; format: ADME, cell-free; details: read-out: PPB (converted)
[9] = Half-life in rat at 1 mg/kg, iv administered as single dose by capillary micro-sampling analysis; format: ADME, organism-based; details: in vivo
[10] = Cmax in rat at 5 mg/kg, po administered as single dose by capillary micro-sampling analysis; format: ADME, organism-based; parameters: dose 5 mg/kg, route oral; details: in vivo
Cytochrome P450 2C19 = Cytochrome P450 2C19 (Homo sapiens, UniProt P33261); assay: Inhibition of CYP2C19 (unknown origin); format: ADME
[11] = biological target: Tryptophan 2,3-dioxygenase (Homo sapiens, UniProt P48775); assay: Inhibition of TDO in human HEK cells; format: cell-based
[12] = Protein binding in rat plasma; format: ADME, cell-free; details: read-out: PPB (converted)
CT26 [13] = assay: Antitumor activity against mouse CT26 cells implanted in immunocompetent BALB/c mouse assessed as reduction in tumour growth at 100 mg/kg, po administered twice daily over 15 days starting from day 10 post implantation measured thrice per week by digital caliper method; format: functional, organism-based
[14] = Cmax in humanized PXB-mouse assessed as ratio of glucuronide to parent compound at 10 mg/kg, po administered as single dose; format: ADME, organism-based; details: in vivo
CT26 [15] = assay: Synergistic antitumor activity against mouse CT26 cells implanted in immunocompetent BALB/c mouse assessed as reduction in tumour growth at 100 mg/kg, po administered twice daily over 15 days starting from day 10 post implantation in presence of CTLA-4 antibody at 100 ug, ip administered at day 3,6,9 measured thrice per week by digital caliper method and monitored for 45 days; format: functional, organism-based
Mus musculus = assay: In vivo inhibition of IDO1 in C57BL/6J mouse assessed as reduction in LPS-induced kynurenine level in plasma at 100 mg/kg, po administered via gavage measured after 24 hrs by LC-MS/MS analysis; format: functional, organism-based
[16] = biological target: T2, Indoleamine 2,3-dioxygenase 1; assay: Inhibition of IDO1 in interferon-gamma-induced human SKOV3 cells assessed as N-formylkynurenine formation using L-tryptophan as substrate measured after 24 hrs by fluorescence assay
[17] = Half life in human liver microsomes; format: ADME, Microsome
[18] = Volume of distribution in rat at 1 mg/kg, iv administered as single dose by capillary micro-sampling analysis; format: ADME, organism-based; details: in vivo
[19] = Half life in rat liver microsomes; format: ADME, Microsome
[20] = Clearance in rat at 1 mg/kg, iv administered as single dose by capillary micro-sampling analysis; format: ADME, organism-based; details: in vivo
[21] = Cmax in mouse at 10 mg/kg, po by capillary micro-sampling analysis; format: ADME, organism-based; parameters: dose 10 mg/kg, route oral; details: in vivo
[22] = Oral bioavailability in rat at 5 mg/kg administered as single dose by capillary micro-sampling analysis; format: ADME, organism-based; details: in vivo
[23] = Half life in mouse liver microsomes; format: ADME, Microsome
[24] = biological target: T2, Indoleamine 2,3-dioxygenase 1; assay: Inhibition of human N-terminal GST-tagged IDO1 expressed in Escherichia coli Rosetta(DE3) pLysS using L-tryptophan as substrate measured after 1 hr by fluorescence assay
Cytochrome P450 2D6 = Cytochrome P450 2D6 (Homo sapiens, UniProt P10635); assay: Inhibition of CYP2D6 (unknown origin); format: ADME
Sequence of Cytochrome P450 2D6 (P10635 whole entry): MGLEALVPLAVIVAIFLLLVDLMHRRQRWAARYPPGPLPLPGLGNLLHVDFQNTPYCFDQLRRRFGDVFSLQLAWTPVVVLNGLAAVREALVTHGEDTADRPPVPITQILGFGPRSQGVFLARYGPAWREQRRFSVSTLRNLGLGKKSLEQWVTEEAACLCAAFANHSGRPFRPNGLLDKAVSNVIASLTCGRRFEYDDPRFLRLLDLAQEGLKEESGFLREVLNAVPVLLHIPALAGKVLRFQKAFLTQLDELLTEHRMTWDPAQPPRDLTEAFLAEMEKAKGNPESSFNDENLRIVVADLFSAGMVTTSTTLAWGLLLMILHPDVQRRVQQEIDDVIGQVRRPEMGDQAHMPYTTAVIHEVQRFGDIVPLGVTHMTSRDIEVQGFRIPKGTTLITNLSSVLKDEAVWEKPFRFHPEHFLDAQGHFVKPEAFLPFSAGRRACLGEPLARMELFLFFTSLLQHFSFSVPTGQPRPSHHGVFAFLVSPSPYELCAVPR

T2 sequence (P14902 whole entry): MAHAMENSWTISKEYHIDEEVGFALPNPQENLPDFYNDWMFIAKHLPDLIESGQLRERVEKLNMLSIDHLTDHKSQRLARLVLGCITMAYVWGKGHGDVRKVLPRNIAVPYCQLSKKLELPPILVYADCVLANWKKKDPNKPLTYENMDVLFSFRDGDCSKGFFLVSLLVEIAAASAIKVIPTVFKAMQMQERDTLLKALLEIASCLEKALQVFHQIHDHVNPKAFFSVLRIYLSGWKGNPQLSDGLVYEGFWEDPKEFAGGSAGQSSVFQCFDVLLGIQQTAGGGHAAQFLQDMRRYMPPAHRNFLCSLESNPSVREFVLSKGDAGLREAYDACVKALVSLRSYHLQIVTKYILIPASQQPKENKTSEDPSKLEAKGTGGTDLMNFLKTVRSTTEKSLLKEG
Sequence of Tryptophan 2,3-dioxygenase (P48775 whole entry): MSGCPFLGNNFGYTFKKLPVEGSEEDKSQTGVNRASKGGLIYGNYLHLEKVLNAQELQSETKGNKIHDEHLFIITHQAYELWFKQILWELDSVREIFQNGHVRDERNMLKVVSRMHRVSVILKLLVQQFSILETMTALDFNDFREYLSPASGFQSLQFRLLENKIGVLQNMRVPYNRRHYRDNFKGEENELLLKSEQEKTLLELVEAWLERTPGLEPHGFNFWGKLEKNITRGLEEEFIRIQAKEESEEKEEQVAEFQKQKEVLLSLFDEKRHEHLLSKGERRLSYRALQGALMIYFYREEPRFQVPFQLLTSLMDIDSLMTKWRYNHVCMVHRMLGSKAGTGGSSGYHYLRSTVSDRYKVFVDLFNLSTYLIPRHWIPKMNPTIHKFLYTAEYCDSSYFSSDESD
Sequence of Cytochrome P450 2C19 (P33261 whole entry): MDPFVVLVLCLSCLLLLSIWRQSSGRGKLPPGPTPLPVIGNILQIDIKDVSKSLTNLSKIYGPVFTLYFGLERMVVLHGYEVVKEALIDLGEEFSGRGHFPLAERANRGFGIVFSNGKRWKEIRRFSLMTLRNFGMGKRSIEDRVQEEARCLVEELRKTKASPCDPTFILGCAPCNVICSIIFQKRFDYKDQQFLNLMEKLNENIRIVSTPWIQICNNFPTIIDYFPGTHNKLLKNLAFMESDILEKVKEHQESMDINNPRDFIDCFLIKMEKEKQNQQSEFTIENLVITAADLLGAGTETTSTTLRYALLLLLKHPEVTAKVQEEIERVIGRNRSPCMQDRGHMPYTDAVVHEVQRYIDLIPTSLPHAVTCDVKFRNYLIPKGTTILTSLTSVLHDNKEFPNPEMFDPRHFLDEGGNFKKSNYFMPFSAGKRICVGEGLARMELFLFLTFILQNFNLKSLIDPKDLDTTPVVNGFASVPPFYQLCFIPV
Sequence of Cytochrome P450 3A4 (P08684 whole entry): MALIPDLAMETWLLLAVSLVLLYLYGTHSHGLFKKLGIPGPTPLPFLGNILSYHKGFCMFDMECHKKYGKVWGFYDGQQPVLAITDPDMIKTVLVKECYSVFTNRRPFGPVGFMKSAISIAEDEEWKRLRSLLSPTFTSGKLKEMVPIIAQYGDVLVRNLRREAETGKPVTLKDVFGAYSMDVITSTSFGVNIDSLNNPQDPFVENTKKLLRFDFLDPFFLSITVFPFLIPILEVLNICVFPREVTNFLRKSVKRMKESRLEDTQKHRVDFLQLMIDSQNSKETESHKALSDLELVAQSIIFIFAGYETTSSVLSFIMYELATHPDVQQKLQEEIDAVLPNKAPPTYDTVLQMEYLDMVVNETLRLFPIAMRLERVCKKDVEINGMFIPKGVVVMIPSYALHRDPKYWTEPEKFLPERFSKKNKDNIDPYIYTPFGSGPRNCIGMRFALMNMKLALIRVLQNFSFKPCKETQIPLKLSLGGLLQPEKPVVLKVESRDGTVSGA
Sequence of Cytochrome P450 2C9 (P11712 whole entry): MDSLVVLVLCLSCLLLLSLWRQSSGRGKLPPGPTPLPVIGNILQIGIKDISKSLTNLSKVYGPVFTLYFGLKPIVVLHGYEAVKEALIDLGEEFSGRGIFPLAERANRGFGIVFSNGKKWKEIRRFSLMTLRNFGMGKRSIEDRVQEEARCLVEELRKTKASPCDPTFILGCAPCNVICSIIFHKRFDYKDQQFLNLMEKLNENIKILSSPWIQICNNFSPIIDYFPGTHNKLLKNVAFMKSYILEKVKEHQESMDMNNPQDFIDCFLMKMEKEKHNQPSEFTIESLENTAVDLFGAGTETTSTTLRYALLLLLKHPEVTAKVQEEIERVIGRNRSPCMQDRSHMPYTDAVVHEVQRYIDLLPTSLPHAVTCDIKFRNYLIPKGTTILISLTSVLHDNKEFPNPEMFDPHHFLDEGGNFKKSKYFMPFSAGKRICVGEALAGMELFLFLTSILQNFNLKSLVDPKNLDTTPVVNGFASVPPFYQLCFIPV

## NS(=O)(=O)CC(=O)NCCSc1nonc1/C(=N/O)Nc1cccc(Cl)c1
[1]
  AUC(0-t) at 24 h: 26 µM·h
[2]
  half-life: 2.6 h
Cytochrome P450 2C9
  IC50: > 10000 nM
[3]
  fraction unbound: 0.046
UGT1A9
  half-life at 1 µM: 0.9 h
[4]
  Ratio: > 2
CT26 [5]
  Activity: Active
Cytochrome P450 3A4
  IC50: > 10000 nM
[6]
  AUC(0-t) at 24 h: 11.9 µM·h
[7]
  IC50: 220 nM
[8]
  fraction unbound: 0.026
[9]
  half-life: 1.5 h
[10]
  Cmax: 5.6 µM
Cytochrome P450 2C19
  IC50: > 10000 nM
[11]
  IC50: > 10000 nM
[12]
  fraction unbound: 0.043
CT26 [13]
  Activity: Active
[14]
  Ratio: > 3
CT26 [15]
  Activity: Active
Mus musculus
  inhibition: Active
[16]
  IC50: 10 nM
[17]
  half-life: > 3 h
[18]
  Vd: 0.33 L/kg
[19]
  half-life: 0.562 h
[20]
  clearance: 3.65 mL/min/kg
[21]
  Cmax: 5 µM
[22]
  bioavailability: 28%
[23]
  half-life: 1.26 h
[24]
  IC50: 21 nM
Cytochrome P450 2D6
  IC50: > 10000 nM
